From PubChem BioAssay AID1963968 (Molecular Pharmacology Branch, DTP, NCI, 2024)

System: 945468-187-T-J3-PDC spheroids with HUVEC/MSC, viability
Assay: Anticancer human tumor 945468-187-T-J3-PDC patient-derived rectal carcinoma cell line growth inhibition [PI3K]
Settings: for IC50: curve of first compound; for viability, T/C: stronger effect = lower value
How it was run: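 Complex 3D spheroids (cancer cells + endothelial HUVEC + mesenchymal stem cells); drug pairs of targeted agent x inavolisib/alpelisib/duvelisib/copanlisib; half-log series from ~Cmax, max 10 microM if Cmax unknown; endpoint viability.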

[1] = second compound 0.00316 µM, first compound 0.0316 µM
[2] = second compound 0.00316 µM, first compound 0.1 µM
[3] = second compound 0.00316 µM, first compound 0.316 µM
[4] = second compound 0.00316 µM, first compound 1 µM
[5] = second compound 0.00316 µM, first compound 3.16 µM
[6] = second compound 0.00316 µM, first compound 10 µM
[7] = second compound 0.01 µM, first compound 0.0316 µM
[8] = second compound 0.01 µM, first compound 0.1 µM
[9] = second compound 0.01 µM, first compound 0.316 µM
[10] = second compound 0.01 µM, first compound 1 µM
[11] = second compound 0.01 µM, first compound 3.16 µM
[12] = second compound 0.01 µM, first compound 10 µM
[13] = second compound 0.0316 µM, first compound 0.0316 µM
[14] = second compound 0.0316 µM, first compound 0.1 µM
[15] = second compound 0.0316 µM, first compound 0.316 µM
[16] = second compound 0.0316 µM, first compound 1 µM
[17] = second compound 0.0316 µM, first compound 3.16 µM
[18] = second compound 0.0316 µM, first compound 10 µM
[19] = second compound 0.1 µM, first compound 0.0316 µM
[20] = second compound 0.1 µM, first compound 0.1 µM
[21] = second compound 0.1 µM, first compound 0.316 µM
[22] = second compound 0.1 µM, first compound 1 µM
[23] = second compound 0.1 µM, first compound 3.16 µM
[24] = second compound 0.1 µM, first compound 10 µM
[25] = second compound 0.316 µM, first compound 0.0316 µM
[26] = second compound 0.316 µM, first compound 0.1 µM
[27] = second compound 0.316 µM, first compound 0.316 µM
[28] = second compound 0.316 µM, first compound 1 µM
[29] = second compound 0.316 µM, first compound 3.16 µM
[30] = second compound 0.316 µM, first compound 10 µM
[31] = second compound 1 µM, first compound 0.0316 µM
[32] = second compound 1 µM, first compound 0.1 µM
[33] = second compound 1 µM, first compound 0.316 µM
[34] = second compound 1 µM, first compound 1 µM
[35] = second compound 1 µM, first compound 3.16 µM
[36] = second compound 1 µM, first compound 10 µM
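Note: spheroids exposed to agents for 7 days before viability read.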
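Throughout, for viability, T/C: 100% = DMSO vehicle control viability.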

C#Cc1c(F)ccc2cc(O)cc(-c3ncc4c(N5CC6CCC(C5)N6)nc(OCC56CCCN5CC(F)C6)nc4c3F)c12 (stereo not given) + COc1c(OCCCN2CCOCC2)ccc2c3n(c(=NC(=O)c4cnc(N)nc4)nc12)CCN3
IC50 (second compound 0.00316 µM): > 10000 nM | IC50 (second compound 0.01 µM): > 10000 nM | IC50 (second compound 0.0316 µM): > 10000 nM | IC50 (second compound 0.1 µM): < 31.6 nM | IC50 (second compound 0.316 µM): < 31.6 nM | IC50 (second compound 1 µM): < 31.6 nM | viability, T/C [1]: 102% | viability, T/C [2]: 95.9% | viability, T/C [3]: 98.6% | viability, T/C [4]: 94.2% | viability, T/C [5]: 108% | viability, T/C [6]: 117% | viability, T/C [7]: 98.1% | viability, T/C [8]: 97.2% | viability, T/C [9]: 96.6% | viability, T/C [10]: 89% | viability, T/C [11]: 104% | viability, T/C [12]: 98% | viability, T/C [13]: 79.6% | viability, T/C [14]: 88.2% | viability, T/C [15]: 91.3% | viability, T/C [16]: 87.2% | viability, T/C [17]: 69.9% | viability, T/C [18]: 57.6% | viability, T/C [19]: 37.4% | viability, T/C [20]: 42.2% | viability, T/C [21]: 46.3% | viability, T/C [22]: 39% | viability, T/C [23]: 34.7% | viability, T/C [24]: 18.5% | viability, T/C [25]: 22.8% | viability, T/C [26]: 22.4% | viability, T/C [27]: 21.6% | viability, T/C [28]: 13.1% | viability, T/C [29]: 17.2% | viability, T/C [30]: 5.33% | viability, T/C [31]: 16.2% | viability, T/C [32]: 14.6% | viability, T/C [33]: 14.8% | viability, T/C [34]: 9.87% | viability, T/C [35]: 6.91% | viability, T/C [36]: 3.67%

C=CC(=O)N1CCN(c2nc(=O)n(-c3c(C)ccnc3C(C)C)c3nc(-c4c(O)cccc4F)c(F)cc23)C(C)C1 (stereo not given) + COc1c(OCCCN2CCOCC2)ccc2c3n(c(=NC(=O)c4cnc(N)nc4)nc12)CCN3
IC50 (second compound 0.00316 µM): > 10000 nM | IC50 (second compound 0.01 µM): > 10000 nM | IC50 (second compound 0.0316 µM): > 10000 nM | IC50 (second compound 0.1 µM): < 31.6 nM | IC50 (second compound 0.316 µM): < 31.6 nM | IC50 (second compound 1 µM): < 31.6 nM | viability, T/C [1]: 97.2% | viability, T/C [2]: 109% | viability, T/C [3]: 125% | viability, T/C [4]: 89.9% | viability, T/C [5]: 95.8% | viability, T/C [6]: 99.4% | viability, T/C [7]: 105% | viability, T/C [8]: 90% | viability, T/C [9]: 94.1% | viability, T/C [10]: 97.5% | viability, T/C [11]: 101% | viability, T/C [12]: 92.4% | viability, T/C [13]: 95.4% | viability, T/C [14]: 86.7% | viability, T/C [15]: 86.6% | viability, T/C [16]: 88.2% | viability, T/C [17]: 95.1% | viability, T/C [18]: 96.9% | viability, T/C [19]: 49.2% | viability, T/C [20]: 48.2% | viability, T/C [21]: 57.6% | viability, T/C [22]: 62% | viability, T/C [23]: 75.2% | viability, T/C [24]: 74.3% | viability, T/C [25]: 20.3% | viability, T/C [26]: 20.9% | viability, T/C [27]: 21.1% | viability, T/C [28]: 22.6% | viability, T/C [29]: 22.9% | viability, T/C [30]: 28.9% | viability, T/C [31]: 17% | viability, T/C [32]: 18.3% | viability, T/C [33]: 14.3% | viability, T/C [34]: 15.5% | viability, T/C [35]: 17.5% | viability, T/C [36]: 19%

CC(Cn1ccc(-c2ccc(C#N)c(Cl)c2)n1)NC(=O)c1cc(C(C)O)[nH]n1 (stereo not given) + COc1c(OCCCN2CCOCC2)ccc2c3n(c(=NC(=O)c4cnc(N)nc4)nc12)CCN3
IC50 (second compound 0.00316 µM): > 10000 nM | IC50 (second compound 0.01 µM): > 10000 nM | IC50 (second compound 0.0316 µM): > 10000 nM | IC50 (second compound 0.1 µM): < 31.6 nM | IC50 (second compound 0.316 µM): < 31.6 nM | IC50 (second compound 1 µM): < 31.6 nM | viability, T/C [1]: 96.6% | viability, T/C [2]: 92.7% | viability, T/C [3]: 95.7% | viability, T/C [4]: 88.5% | viability, T/C [5]: 93.9% | viability, T/C [6]: 92.3% | viability, T/C [7]: 93% | viability, T/C [8]: 96.8% | viability, T/C [9]: 103% | viability, T/C [10]: 94.8% | viability, T/C [11]: 98.6% | viability, T/C [12]: 96.5% | viability, T/C [13]: 107% | viability, T/C [14]: 81% | viability, T/C [15]: 95.9% | viability, T/C [16]: 95.7% | viability, T/C [17]: 109% | viability, T/C [18]: 88.2% | viability, T/C [19]: 49.1% | viability, T/C [20]: 50% | viability, T/C [21]: 49.1% | viability, T/C [22]: 48.9% | viability, T/C [23]: 48.2% | viability, T/C [24]: 54.7% | viability, T/C [25]: 23.3% | viability, T/C [26]: 24.2% | viability, T/C [27]: 18.5% | viability, T/C [28]: 21.6% | viability, T/C [29]: 27.5% | viability, T/C [30]: 23.1% | viability, T/C [31]: 18.8% | viability, T/C [32]: 15.6% | viability, T/C [33]: 16.6% | viability, T/C [34]: 15.2% | viability, T/C [35]: 18.7% | viability, T/C [36]: 16.1%

CC1(C)CCC(Nc2ncc(C(F)(F)F)c(-c3c[nH]c4c(P(C)(C)=O)c(C#N)ccc34)n2)CN1 (stereo not given) + COc1c(OCCCN2CCOCC2)ccc2c3n(c(=NC(=O)c4cnc(N)nc4)nc12)CCN3
IC50 (second compound 0.00316 µM): 3350 nM | IC50 (second compound 0.01 µM): 31.6 nM | IC50 (second compound 0.0316 µM): 1250 nM | IC50 (second compound 0.1 µM): < 31.6 nM | IC50 (second compound 0.316 µM): < 31.6 nM | IC50 (second compound 1 µM): < 31.6 nM | viability, T/C [1]: 55.6% | viability, T/C [2]: 40.7% | viability, T/C [3]: 39% | viability, T/C [4]: 49.6% | viability, T/C [5]: 78.7% | viability, T/C [6]: 6.58% | viability, T/C [7]: 45.7% | viability, T/C [8]: 48.1% | viability, T/C [9]: 41.9% | viability, T/C [10]: 56% | viability, T/C [11]: 55.7% | viability, T/C [12]: 5.22% | viability, T/C [13]: 56.8% | viability, T/C [14]: 47.4% | viability, T/C [15]: 52% | viability, T/C [16]: 48.1% | viability, T/C [17]: 46.9% | viability, T/C [18]: 5.62% | viability, T/C [19]: 40.4% | viability, T/C [20]: 39.2% | viability, T/C [21]: 34.3% | viability, T/C [22]: 35.4% | viability, T/C [23]: 40.3% | viability, T/C [24]: 2.67% | viability, T/C [25]: 27.9% | viability, T/C [26]: 26.6% | viability, T/C [27]: 23.2% | viability, T/C [28]: 20.5% | viability, T/C [29]: 20.8% | viability, T/C [30]: 5.77% | viability, T/C [31]: 15.7% | viability, T/C [32]: 17.2% | viability, T/C [33]: 17.5% | viability, T/C [34]: 14.6% | viability, T/C [35]: 11.4% | viability, T/C [36]: 0.98%

Cn1nccc1Nc1nccc(-c2ccn(C(CO)c3ccc(Cl)c(F)c3)c(=O)c2)n1 (stereo not given) + COc1c(OCCCN2CCOCC2)ccc2c3n(c(=NC(=O)c4cnc(N)nc4)nc12)CCN3
IC50 (second compound 0.00316 µM): > 10000 nM | IC50 (second compound 0.01 µM): > 10000 nM | IC50 (second compound 0.0316 µM): > 10000 nM | IC50 (second compound 0.1 µM): < 31.6 nM | IC50 (second compound 0.316 µM): < 31.6 nM | IC50 (second compound 1 µM): < 31.6 nM | viability, T/C [1]: 95.1% | viability, T/C [2]: 93% | viability, T/C [3]: 102% | viability, T/C [4]: 98.9% | viability, T/C [5]: 109% | viability, T/C [6]: 111% | viability, T/C [7]: 97.5% | viability, T/C [8]: 87.7% | viability, T/C [9]: 119% | viability, T/C [10]: 97.5% | viability, T/C [11]: 123% | viability, T/C [12]: 104% | viability, T/C [13]: 97.7% | viability, T/C [14]: 85% | viability, T/C [15]: 93.5% | viability, T/C [16]: 85.6% | viability, T/C [17]: 83.4% | viability, T/C [18]: 66% | viability, T/C [19]: 49.7% | viability, T/C [20]: 44.1% | viability, T/C [21]: 55.6% | viability, T/C [22]: 43.9% | viability, T/C [23]: 40.5% | viability, T/C [24]: 42.8% | viability, T/C [25]: 20.9% | viability, T/C [26]: 18.9% | viability, T/C [27]: 18.2% | viability, T/C [28]: 19.4% | viability, T/C [29]: 15.3% | viability, T/C [30]: 14.5% | viability, T/C [31]: 14.9% | viability, T/C [32]: 15.5% | viability, T/C [33]: 11.3% | viability, T/C [34]: 9.48% | viability, T/C [35]: 8.78% | viability, T/C [36]: 7.89%
